Publication PMC8646129 (Biochemistry and Biophysics Reports, 2021)

Target: T1, TMEM16B (Mus musculus, UniProt Q8CFW1)
T1 sequence (Q8CFW1 1-1002): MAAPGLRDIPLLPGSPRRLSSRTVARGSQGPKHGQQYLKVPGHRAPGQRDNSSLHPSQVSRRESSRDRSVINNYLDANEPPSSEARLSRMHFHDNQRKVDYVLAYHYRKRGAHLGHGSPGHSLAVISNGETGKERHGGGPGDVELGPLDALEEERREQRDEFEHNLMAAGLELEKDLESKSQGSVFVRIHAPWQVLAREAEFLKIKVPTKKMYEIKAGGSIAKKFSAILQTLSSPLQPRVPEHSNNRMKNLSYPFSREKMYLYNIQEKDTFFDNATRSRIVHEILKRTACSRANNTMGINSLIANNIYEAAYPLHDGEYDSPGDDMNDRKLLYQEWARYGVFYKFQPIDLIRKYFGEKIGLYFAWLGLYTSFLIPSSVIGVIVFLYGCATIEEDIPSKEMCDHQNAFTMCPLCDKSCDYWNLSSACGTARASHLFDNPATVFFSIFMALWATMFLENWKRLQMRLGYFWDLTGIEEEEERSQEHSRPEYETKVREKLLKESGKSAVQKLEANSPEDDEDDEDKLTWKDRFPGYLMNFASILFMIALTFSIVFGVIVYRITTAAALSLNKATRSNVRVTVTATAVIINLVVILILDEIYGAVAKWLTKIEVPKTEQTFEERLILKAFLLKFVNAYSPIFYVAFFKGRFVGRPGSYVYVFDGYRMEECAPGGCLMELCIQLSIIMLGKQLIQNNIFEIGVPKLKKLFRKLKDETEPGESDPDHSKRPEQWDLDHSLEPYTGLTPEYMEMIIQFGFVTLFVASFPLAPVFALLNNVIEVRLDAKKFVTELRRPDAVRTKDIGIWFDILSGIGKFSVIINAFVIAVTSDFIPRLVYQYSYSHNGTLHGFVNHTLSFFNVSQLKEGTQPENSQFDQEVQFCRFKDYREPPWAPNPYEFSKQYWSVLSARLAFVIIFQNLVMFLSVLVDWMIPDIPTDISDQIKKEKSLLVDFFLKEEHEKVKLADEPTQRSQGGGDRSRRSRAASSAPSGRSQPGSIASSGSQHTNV
Assay: whole-cell patch clamp of transfected HEK293 cells
Format: cell-based

EC50: 24.2 nM
SMILES: O=C(NC1(c2ccccc2)CC1)c1c(CN2CCC(N3CCCCC3)CC2)c(-c2cccc(C(F)(F)F)c2)nc2cc(Br)ccc12 [GSKb, GSK2193874]
